Test results: the NIST ThermoML archive (doi:10.1016/j.jct.2006.09.012)
Numbers after ± are expanded uncertainties.

Conditions: Liquid, Buoyancy - hydrostatic balance with magnetic suspension - two sinkers

CCOC(F)(C(F)(F)C(F)(F)C(F)(F)F)C(F)(C(F)(F)F)C(F)(F)F (stereo not drawn) [2-trifluoromethyl-3-ethoxydodecafluorohexane]
Conditions | mass density [kg/m3]
285 K, 1204.2 kPa | 1650.59 ± 2.2
285 K, 1204.8 kPa | 1650.6 ± 2.2
285 K, 1205.2 kPa | 1650.59 ± 2.2
285 K, 5212.8 kPa | 1659.79 ± 2.2
285 K, 5220.2 kPa | 1659.81 ± 2.2
285 K, 10181 kPa | 1670.44 ± 2.2
285 K, 10197 kPa | 1670.47 ± 2.2
308 K, 19845 kPa | 1649.2 ± 2.2
308.01 K, 1314.5 kPa | 1604.24 ± 2.1
308.01 K, 1320.9 kPa | 1604.26 ± 2.1
308.01 K, 1331 kPa | 1604.29 ± 2.1
308.01 K, 5215.7 kPa | 1614.98 ± 2.1
308.01 K, 5219.6 kPa | 1614.99 ± 2.1
308.01 K, 5223.4 kPa | 1615 ± 2.1
308.01 K, 10450 kPa | 1628.17 ± 2.2
308.01 K, 10468 kPa | 1628.21 ± 2.2
308.01 K, 10476 kPa | 1628.24 ± 2.2
308.01 K, 19786 kPa | 1649.07 ± 2.2
308.01 K, 19825 kPa | 1649.16 ± 2.2
350 K, 1285.8 kPa | 1515.32 ± 2.1
350 K, 1286 kPa | 1515.32 ± 2.1
350 K, 1286.3 kPa | 1515.32 ± 2.1
350 K, 1286.4 kPa | 1515.32 ± 2.1
350 K, 1286.7 kPa | 1515.32 ± 2.1
350 K, 1286.8 kPa | 1515.32 ± 2.1
350 K, 5286.1 kPa | 1531.01 ± 2.1
350 K, 5291 kPa | 1531.03 ± 2.1
350 K, 10388 kPa | 1548.66 ± 2.1
350 K, 10394 kPa | 1548.69 ± 2.1
350 K, 10401 kPa | 1548.71 ± 2.1
350 K, 16836 kPa | 1568.2 ± 2.2
350 K, 16850 kPa | 1568.24 ± 2.2
350 K, 17082 kPa | 1568.89 ± 2.2
350 K, 19716 kPa | 1576.14 ± 2.2
350 K, 19732 kPa | 1576.18 ± 2.2
350 K, 19786 kPa | 1576.33 ± 2.2
400 K, 1164.3 kPa | 1398.22 ± 2
400 K, 1164.4 kPa | 1398.22 ± 2
400 K, 1164.7 kPa | 1398.23 ± 2
400 K, 5225.5 kPa | 1424.08 ± 2
400 K, 5227.2 kPa | 1424.09 ± 2
400 K, 5228.8 kPa | 1424.1 ± 2
400 K, 9975.6 kPa | 1448.91 ± 2.1
400 K, 9979.7 kPa | 1448.93 ± 2.1
400 K, 9984.1 kPa | 1448.95 ± 2.1
400 K, 19197 kPa | 1487.27 ± 2.1
400 K, 19208 kPa | 1487.3 ± 2.1
400 K, 19218 kPa | 1487.34 ± 2.1
400 K, 19258 kPa | 1487.49 ± 2.1
400 K, 19276 kPa | 1487.55 ± 2.1
400 K, 19287 kPa | 1487.59 ± 2.1
400 K, 19317 kPa | 1487.71 ± 2.1
400 K, 19328 kPa | 1487.74 ± 2.1
400 K, 19347 kPa | 1487.81 ± 2.1
400 K, 19369 kPa | 1487.89 ± 2.1
400 K, 19380 kPa | 1487.93 ± 2.1
400 K, 19391 kPa | 1487.97 ± 2.1
400 K, 19416 kPa | 1488.07 ± 2.1
400 K, 19495 kPa | 1488.35 ± 2.1
400 K, 19519 kPa | 1488.44 ± 2.1
400 K, 19543 kPa | 1488.53 ± 2.1
400 K, 19560 kPa | 1488.59 ± 2.1
400 K, 19582 kPa | 1488.67 ± 2.1
